Results: patent publication US7999136B2 (priority 2007, dated 2011)

Key:
[1] = system: Puccinia recondita f. sp. tritici; experiment: Test of curative effect on wheat leaf rust; format: in vivo; settings: wheat (Shirogane), foliage application 500 ppm, curative (1 day after inoculation), 6 days after application
Experimental: (§1) The controlling effect was evaluated by visually observing the area or lesion spots on each of test plants at the time of investigation and comparing the area of lesion spots on a plant treated with the present compound with that on an untreated plant.
Test of Curative Effect on Wheat Leaf Rust (Puccinia recondita f. sp. tritici)
Each of plastic pots was filled with sandy loam and sown with wheat (cultivar: Shirogane), followed by growing in a greenhouse for 9 days. The plant was inoculated by sprinkling with spores of Puccinia recondita f. sp. tritici. After the inoculation, the plant was held under darkness and high humidity conditions at 23° C. for 1 day and then air-dried to give a seedling infected with Puccinia recondita f. sp. tritici. The present compound 10 was formulated into a flowable formulation according to Formulation Example 6. The flowable formulation was diluted to a predetermined concentration (500 ppm) with water, and foliage application of the dilution was carried out so that the dilution adhered sufficiently to the surfaces of leaves of the above plant. After the foliage application, the plant was air-dried and held under lighting conditions for 6 days, and then the area of lesions was investigated.

[2] = system: Erysiphe graminis f. sp. tritici; experiment: Test of preventive effect on wheat powdery mildew; format: in vivo; settings: wheat (Shirogane), foliage application 500 ppm, 7 days after inoculation
Experimental: as §1
Test of Preventive Effect on Wheat Powdery Mildew (Erysiphe graminis f. sp. tritici)
Each of plastic pots was filled with sandy loam and sown with wheat (cultivar: Shirogane), followed by growing in a greenhouse for 10 days. The present compound 8 was formulated into a flowable formulation according to Formulation Example 6. The flowable formulation was diluted to a predetermined concentration (500 ppm) with water, and foliage application of the dilution was carried out so that the dilution adhered sufficiently to the surfaces of leaves of the grown wheat young seedling. After the foliage application, the plant was air-dried and then inoculated by sprinkling with spores of Erysiphe graminis f. sp. tritici. After the inoculation, the plant was held in a greenhouse at 23° C. for 7 days and the area of lesion spots was investigated.

SMILES	area of lesion spots on the treated plant relative to that on an untreated plant [1] [%]	area of lesion spots on the treated plant relative to that on an untreated plant [2] [%]
C#CCOc1cc(F)c(C(=O)NC(C)C(C)C)cc1F (centres unmarked) [compound 10]	≤ 30	–
C#CCOc1cc(F)c(C(=O)NCC2CCCCC2)cc1F [compound 8]	–	≤ 30
